Measurements from US20220054532A1, “VETERINARY COMPOSITIONS AND METHODS OF USE THEREFOR” (priority 2019, published 2022).

What was measured:
Format in all cases: in vivo
[1] = test system: dogs suffering from cognitive dysfunction syndrome; experiment: Example 10: cognitive decline, Cognitive Dysfunction Screening Checklist (CBD Complex); details: for Average Final Score: day 60, BID
From the text: (§1) This example examines the ability of embodiments of the invention versus Anipryl® to treat cognitive decline.
The patient group is twenty dogs suffering from cognitive dysfunction syndrome, as determined by the Cognitive Dysfunction Screening Checklist. See G. Landsberg et al., 2003 HANDBOOK OF BEHAVIOR PROBLEMS OF THE DOG AND CAT (Elsevier Science Limited) (2003). The twenty dogs are broken into five groups of four dogs. The first group receives Anipryl® as the sole active agent; the second group receives a composition comprising HMW HA as the sole active agent; the third group receives a composition comprising CBD as the sole active agent; the fourth group receives a composition comprising HMW HA and CBD Complex as the active agents; and the fifth group receives a composition comprising HMW HA, CBD Complex, nicotinamide adenine dinucleotide (“NAD”), and phosphatidylserine as the active agents.
(§2) Each composition is administered for a period of sixty (60) days, twice per day (“BID”). The owner completes the Checklist on days 0 (“Initial Score”), 15, 30, 45, and 60 (“Final Score”) of treatment.
Each group is evaluated and Checklist scores averaged. The following scores are observed and the results depicted in FIG. 10: […]

[2] = test system: dogs suffering from cognitive dysfunction syndrome; experiment: Example 2: cognitive decline, Cognitive Dysfunction Screening Checklist; details: for Average Final Score: day 60, BID
From the text: as §1
The patient group is twenty dogs suffering from cognitive dysfunction syndrome, as determined by the Cognitive Dysfunction Screening Checklist. See G. Landsberg et al., 2003 HANDBOOK OF BEHAVIOR PROBLEMS OF THE DOG AND CAT (Elsevier Science Limited) (2003). The twenty dogs are broken into five groups of four dogs. The first group receives Anipryl® as the sole active agent; the second group receives a composition comprising HMW HA as the sole active agent; the third group receives a composition comprising CBD as the sole active agent; the fourth group receives a composition comprising HMW HA and CBD as the active agents; and the fifth group receives a composition comprising HMW HA, CBD, nicotinamide adenine dinucleotide (“NAD”), and phosphatidylserine as the active agents.
as §2
Each group is evaluated and Checklist scores averaged. The following scores are observed and the results depicted in FIG. 2: […]

[3] = test system: dogs suffering from heart failure; experiment: Example 7: heart failure in dogs; details: heart failure scale 1 (few to no clinical signs) to 10 (severe)
From the text: This example examines the ability of embodiments of the invention versus enalapril to treat heart failure.
The patient group is twenty-four dogs suffering from heart failure.
The patient group is broken into six groups of four dogs. The first group receives enalapril as the sole active agent; the second group receives a composition comprising enalapril and Lasix®; the third group receives a composition comprising HMW HA as the sole active agent; the fourth group receives a composition comprising CBD as the sole active agent; the fifth group receives a composition comprising HMW HA and CBD as the active agents; and the sixth group receives a composition comprising HMW HA, CBD, liposomal CoQ10, hawthorn berry, and ginko biloba as the active agents.
Each composition is administered for a period of ninety (90) days, BID. Each animal is evaluated on days 0 (“Initial Score”), 30, 60, and 90 (“Final Score”) of treatment. The results are averaged and characterized on a scale of 1 (few to no clinical signs of heart failure) to 10 (severe heart failure).
The following canine scores are observed and the results depicted in FIG. 7: […]

[4] = test system: cats suffering from GI-specific inflammation; experiment: Example 3: GI-specific inflammation, owner-rated symptom reduction (feline); details: symptom reduction score 0 (no reduction) to 4 (resolution of symptoms)
From the text: (§3) This example examines the ability of embodiments of the invention versus Pepcid® to treat unwanted GI-specific inflammation characterized by gastritis, reflux, vomiting, diarrhea, and inappetence.
(§4) The first patient group is twenty dogs suffering from GI-specific inflammation. The second patient group is twenty cats suffering from GI-specific inflammation. Each patient group is broken into five groups of four animals. The first groups receive Pepcid® as the sole active agent; the second groups receive a composition comprising HMW HA as the sole active agent; the third groups receive a composition comprising CBD as the sole active agent; the fourth groups receive a composition comprising HMW HA and CBD as the active agents; and the fifth groups receive a composition comprising HMW HA, CBD, and glutathione as the active agents.
(§5) Each composition is administered for a period of twenty-eight (28) days, BID. The owner observes potential reduction of symptoms at the end of treatment and rates the reduction as no reduction (score of 0), mild reduction (score of 1), moderate reduction (score of 2), significant reduction (score of 3), or resolution of symptoms (score of 4).
The following feline scores are observed and the results depicted in FIG. 3b: […]

[5] = test system: cats suffering from GI-specific inflammation; experiment: Example 11: GI-specific inflammation, owner-rated symptom reduction; details: species not given, symptom reduction score 0 to 4
From the text: as §3
as §4, with “and CBD Complex as the” for “and CBD as the”, “HMW HA, CBD Complex, and glutathione” for “HMW HA, CBD, and glutathione”
as §5

[6] = test system: dogs suffering from GI-specific inflammation; experiment: Example 11: GI-specific inflammation, owner-rated symptom reduction (canine, CBD Complex); details: canine (FIG. 11a), symptom reduction score 0 (no reduction) to 4 (resolution of symptoms)
From the text: as §3
as §4, with “and CBD Complex as the” for “and CBD as the”, “HMW HA, CBD Complex, and glutathione” for “HMW HA, CBD, and glutathione”
as §5

[7] = test system: dogs suffering from GI-specific inflammation; experiment: Example 3: GI-specific inflammation, owner-rated symptom reduction (canine); details: symptom reduction score 0 (no reduction) to 4 (resolution of symptoms)
From the text: as §3, §4, §5
The following canine scores are observed and the results depicted in FIG. 3a: […]

[8] = test system: dogs with a history of severe, chronic skin issues, atopy, pruritis, yeast overgrowth, and/or infection; experiment: Example 8: skin conditions (itch score) and side effects in dogs; design: Average Side Effect Score: scale not given here
From the text: (§6) This example examines the ability of embodiments of the invention versus prednisone to treat skin conditions.
(§7) The patient group is twenty-four dogs with a history of severe, chronic skin issues, atopy, pruritis, yeast overgrowth, and/or infection, as diagnosed by their referring veterinarian. The patient group is broken into six groups of four animals. The first group receives prednisone as the sole active agent; the second group receives a composition comprising prednisone and HMW HA as the active agents; the third group receives a composition comprising HMW HA as the sole active agent; the fourth group receives a composition comprising CBD as the sole active agent; the fifth group receives a composition comprising HMW HA and CBD as the active agents; and the sixth group receives a composition comprising HMW HA, CBD, quercetin, and nettles as the active agents.
(§8) Each composition is administered for a period of sixty (60) days, BID. Each dog is evaluated on days 0 (“Initial Score”), 20, 40, and 60 (“Final Score”) of treatment. The results are averaged and characterized on a scale of 0 (no itching—normal dog), 2 (very mild itching—only occasional episodes), 4 (mild itching), 6 (moderate itching—regular episodes), 8 (severe itching—prolonged episodes), to 10 (extremely severe itching—almost continuous).
The following scores are observed and the results depicted in FIG. 8: […]

[9] = test system: dogs with a history of severe, chronic skin issues, atopy, pruritis, yeast overgrowth, and/or infection; experiment: Example 16: skin conditions (itch score) and side effects in dogs (CBD Complex); details: dogs with skin conditions; 60 days BID
From the text: as §6
as §7, with “and CBD Complex as the” for “and CBD as the”, “HMW HA, CBD Complex, quercetin, and” for “HMW HA, CBD, quercetin, and”
as §8

[10] = test system: dogs suffering from osteoarthritis; experiment: Example 1: pain relief and side effects in canine osteoarthritis; details: dogs with osteoarthritis, 4 weeks of administration, group average
From the text: (§9) This example examines the ability of various compositions to minimize pain and examines the level of adverse side effects of each composition.
(§10) At the outset of the study, participants receive a full physical examination, including weight measurement, thigh circumference, and CBC/blood chemistries. Because osteoarthritis is not only a disease of pain, but one characterized by behavioral, appetite, anxiety/aggression, family socialization, and sleep aberrations, the pet's owners are familiarized with the pain scale (canine orthopedic index) and additional behavioral assessment log.
The patient group is twenty-four dogs suffering from osteoarthritis, broken into eight groups of three dogs. The first group receives a control composition with no active agent; the second group receives a composition comprising HA as the sole active agent; the third group receives a composition comprising HMW HA as the sole active agent; the fourth group receives a composition comprising CBD as the sole active agent; the fifth group receives a composition comprising HA and CBD as the active agents; the sixth group receives a composition comprising HMW HA and CBD as the active agents; the seventh group receives a composition comprising Rimadyl as the active agent; and the eighth group receives a composition comprising Meloxicam as the active agent.
(§11) Each composition is administered for a period of four (4) weeks. The owner completes the electronic log questionnaire each week. At the end of the 4-week study, participants have another full physical examination, including weight measurement, thigh circumference, and CBC/blood chemistries, with an exit interview of the owners to gain final impressions.
Each group is evaluated for pain scores and the scores averaged. The following scores are observed and the results depicted in FIG. 1: […]

[11] = test system: dogs suffering from osteoarthritis; experiment: Example 9: pain relief and side effects in canine osteoarthritis (CBD Complex); details: dogs with osteoarthritis, 4 weeks of administration, group average
From the text: as §9, §10
The patient group is twenty-four dogs suffering from osteoarthritis, broken into eight groups of three dogs. The first group receives a control composition with no active agent; the second group receives a composition comprising HA as the sole active agent; the third group receives a composition comprising HMW HA as the sole active agent; the fourth group receives a composition comprising CBD as the sole active agent; the fifth group receives a composition comprising HA and CBD as the active agents; the sixth group receives a composition comprising HMW HA and CBD Complex as the active agents; the seventh group receives a composition comprising Rimadyl as the active agent; and the eighth group receives a composition comprising Meloxicam as the active agent.
as §11
Each group is evaluated for pain scores and the scores averaged. The following scores are observed and the results depicted in FIG. 9: […]

## C#CCN(C)[C@H](C)Cc1ccccc1 [Anipryl ®, Selegiline]
[1]; day 0 (before treatment)
  Average Initial Score: 3
[1]
  Average Final Score: 2
[1]; listed as Anipryl®
  Average Final Score: as effective as HMW HA alone
[2]; day 0 (before treatment)
  Average Initial Score: 3
[2]
  Average Final Score: 2
[2]; listed as Anipryl®
  Average Final Score: as effective as HMW HA alone

## CCOC(=O)[C@H](CCc1ccccc1)N[C@@H](C)C(=O)N1CCC[C@H]1C(=O)O [Enalapril]
[3]; day 0
  Initial Score: 8
[3]; day 90, BID
  Final Score: 5

## NC(N)=Nc1nc(CSCCC(N)=NS(N)(=O)=O)cs1 [Pepcid ®, Famotidine]
[4]; after 28 days BID
  Final Score: 1
[4]; initial
  Initial Score: 0
[5]; after 28 days BID
  Final Score: 1
[5]; initial
  Initial Score: 0
[6]; after 28 days BID
  Final Score: 1
[6]; initial
  Initial Score: 0
[7]; after 28 days BID
  Final Score: 1
[7]; initial
  Initial Score: 0

## C[C@]12C=CC(=O)C=C1CC[C@@H]1[C@@H]2C(=O)C[C@@]2(C)[C@H]1CC[C@]2(O)C(=O)CO [Prednisone]
[8]; dogs with skin conditions, 60 days BID
  Average Side Effect Score: 17
[8]; itch scale 0 (no itching) to 10 (extremely severe), day 0
  Initial Itch Score: 9
[8]; itch scale 0 (no itching) to 10 (extremely severe), day 60, BID
  Final Itch Score: 6
[9]
  Average Side Effect Score: 17

## hyaluronic acid [HA Alone]
[10]
  Average Pain Score: 18
  Average Side Effect Score: 6
[10]; listed as HA alone
  Average Pain Score: only slightly reduce pain
  Average Side Effect Score: low degree of adverse side effects
[11]
  Average Pain Score: 18
  Average Side Effect Score: 6
[11]; listed as HA alone
  Average Pain Score: only slightly reduce pain
  Average Side Effect Score: low degree of adverse side effects
